In US11932870B2, “Compositions and methods for immune cell modulation in adoptive immunotherapies” (Fate Therapeutics, Inc., priority 2016, dated 2024):
Entries after “also recorded” stand apart in the source; their conditions may differ.

Tests used:
Assay type in all cases: cell-based, human
[1] = tested on: CD8 T cells transduced with CAR Construct 1; experiment: Tcm phenotype skewing of CAR-T cells (CD62L, CCR7, CD27 surface expression); settings: flow cytometry day 8
Method: (§1) Culturing cells in large-scale for phenotypic and exhaustion marker evaluation. Isolated CD8 T cells were activated in bulk on day 0 using anti-CD3/anti-CD28 beads in T cell media supplemented with IL-2. On day 1, cells were transduced with the CAR Construct and cell density was adjusted to 0.5×10^6/ml and 10^6 cells were seeded into 12-well plates in the presence of vehicle, TWS119, or DCC-2036. On day 4, cells were transferred into 6-well plates and 2 ml of T cell media was added to each well. On day 6 another 2 ml of media was added to each well. On day 8, CAR T cells were analyzed on a flow cytometer for surface expression of phenotypic markers (CD62L, CCR7, and CD27) and exhaustion markers (PD-1 and Tim-3).
To determine the effect of compound treatment on skewing towards a central memory phenotype, isolated CD8 T cells were activated in bulk on day 0 using anti-CD3/anti-CD28 beads in T cell media supplemented with IL-2. On day 1, cells were transduced with the CAR Construct 1 shown in FIG. 2 and cell density was adjusted to 0.5×10^6/ml and 10^6 cells were seeded into 12 well plates in the presence of vehicle (DMSO), TWS119 or DCC-2036 at the same concentrations. On day 4, cells were transferred into 6-well plates and 2 ml of media was added to each well. On day 6 another 2 ml of media was added to each well. On day 8, cells were analyzed on a flow cytometer for cell surface expression of CD27.
The expression of CD27 observed with vehicle treatment was defined as an MFI (mean fluorescence intensity) of 1 and the relative MFI of cells treated with compound was calculated.

CD8 CAR-T cells = experiment: Exhaustion marker expression (PD-1, Tim-3) on CD8 CAR-T cells
Method: as §1
To determine the effect of compound treatment of CAR-T cells on exhaustion marker expression, cells from three different donors were prepared and treated as described in the protocol above. PD-1 and Tim-3 expression was determined using flow cytometry. […] Tim-3 expression was reduced 2-fold with TWS119, and 3.7-fold with DCC-2036 treatment (FIG. 6A).

CD8+ T cells = experiment: RNA-Seq gene expression of memory T cell genes; settings: DCC-2036 1 μM, TWS-119 10 μM, roughly 6 days, 5 donors, relative to vehicle, FIG. 5
Text: To characterize the impact of DCC-2036 in memory cell skewing, gene expression changes for a panel of key genes, (i.e. CCR7, CD62L, etc.) previously known to be highly expressed in memory T cells were investigated. Cryopreserved CD8+ T cells from 5 different donors were thawed and washed into X-Vivo 15 with 5% human AB serum, IL-2, pen/strep, and additional supplements. Cells were dispensed into flat-bottom 384-well plates at 5×10^5 cells/ml with anti-CD3/anti-CD28 beads. Cells were either treated with DCC-2036 at a final concentration of 1 μM, TWS-119 at 10 μM, or received a vehicle (DMSO) only control treatment. Cells were incubated for roughly 6 days at 37 degrees Celsius with 5% CO2.
Post incubation, cells were lysed and RNA was isolated, fragmented and cDNA was generated in the presence of the appropriate sequencing adapters and sequencing was performed using Illumina next generation sequencing technology (NGS). RNA-Sequencing (RNA-Seq) utilizes the capabilities of NGS to not only acquire nucleotide sequence information, but also provide quantitative gene expression measurements from a given samples transcriptome. Gene transcripts were normalized to counts per million (CPM) reads per samples and relative quantitation of each gene transcript was determined for each in treatment relative to the matching vehicle control treated samples. […]

[2] = tested on: CD8 T cells transduced with the CAR-2 construct; experiment: Larger-scale (24-well GREX) CAR-T culture: viability and expansion; settings: expanded with compound or vehicle for 6 days
Text: The cells were transduced with the CAR-2 construct (FIG. 2) one day after activation and then replated into 24-well GREX plates with or without compounds. Half the media was replaced every two days thereafter until harvest one week post activation. Cells were activated and expanded in the presence of compound or vehicle for 6 days.

[3] = tested on: CAR-T cells co-cultured with irradiated K562 tumor cells that express CD19; experiment: In vitro serial killing/re-stimulation assay; settings: relative to vehicle
Text: An informative clinical parameter that can in some contexts be indicative of likelihood of successful adoptive cell therapy in clinical trials is the ability and extent of expansion of the transferred cells in the patient post-treatment and/or persistence and continued function following initial expansion, e.g., in the context of continued exposure to antigen. The ability of engineered T cells to persist and continue expanding over multiple rounds of antigen stimulation can be indicative of such features and/or likelihood of in vivo function or clinical response. An in vitro serial killing/re-stimulation assay, where the T cells treated by each compound were evaluated for various functions, including expansion and ability to kill tumor cells expressing the target antigen in vitro over multiple rounds of exposure to and withdrawal from antigen, was used as a model system. Such assays were carried out on cells treated with or without compounds, to assess the impact of individual compounds on cell function after repeated encounter with antigen, and cell expansion or persistence in such contexts.
CD8 T cells were activated, transduced, and expanded in the presence of DMSO, TWS119, or DCC-2036. At the end of the expansion, the CAR-T cells were cryopreserved. The serial re-stimulation assay was performed by thawing the CAR-T cells and co-culturing with irradiated K562 tumor cells that express CD19, the antigen recognized by the CAR. Prior to starting each round of killing, cell numbers were adjusted so that CAR-T cell numbers were substantially the same from the cultures generated with DMSO, TWS119, and DCC-2036 treatment respectively. An equal number of irradiated CD19-expressing K562 target cells were added to the different CAR-T cultures.

CNC(=O)c1cc(Oc2ccc(NC(=O)Nc3cc(C(C)(C)C)nn3-c3ccc4ncccc4c3)c(F)c2)ccn1 [DCC-2036, Rebastinib]
increase in the frequency of CAR-T cells expressing both CD62L and CCR7 ([1]; relative to vehicle (DMSO), FIG. 4A): 2.3 fold
increase in the expression of the differentiation marker CD27 (relative MFI) ([1]; relative to vehicle (MFI defined as 1), FIG. 4B): 2.2 fold
expression of T cell exhaustion marker Tim-3 (CD8 CAR-T cells; CD8 T cells at one week post activation, relative to DMSO, FIG. 6A): reduced expression
expression of T cell exhaustion marker PD-1 (CD8 CAR-T cells; CD8 T cells at one week post activation, relative to DMSO, FIG. 6B): reduced expression
reduction of Tim-3 expression (CD8 CAR-T cells; relative to vehicle, three donors, FIG. 6A): 3.7 fold
decrease in PD-1 surface expression (CD8 CAR-T cells; relative to vehicle, three donors, FIG. 6B): 4.5 fold
expression of key memory T cell genes (CCR7, CD62L etc.) (CD8+ T cells): increases in expression at levels similar to or greater than TWS-119
expression of key memory T cell genes (CCR7, CD62L etc.) (CD8+ T cells; listed as DCC-2036 (FT-61314)): increased expression
CAR-T cell viability ([2]; FIG. 3A): improved; also recorded: maintaining viability
CAR-T cell expansion ([2]; FIG. 3B): improved; also recorded: enhancing expansion
cell number expansion of CAR-T cells in rounds 3 and 4 of the serial re-stimulation assay ([3]; FIG. 3C): much higher than the vehicle control
total expansion in CAR-T cell number through all 4 rounds of the serial re-stimulation assay ([3]; FIG. 3D): much greater expansion relative to the vehicle control; also recorded: improves cell expansion
